Test results taken from US20230151025A1, “SUBSTITUTED THIAZOLOPYRIDINES, SALTS THEREOF AND THEIR USE AS HERBICIDALLY ACTIVE SUBSTANCES” (Bayer Aktiengesellschaft, priority 2020, published 2023).

Tests used:
Type in all cases: in vivo
[1] = test system: Amaranthus retroflexus (AMARE); test: Herbicidal post-emergence action (D), 320 g/ha; settings: ca. 3 weeks
In short: (§1)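 Weeds sown in sandy loam and greenhouse-grown for 2 to 3 weeks, then sprayed at single-leaf stage with WP or EC formulations in water plus 0.5% additive at 600 l water/ha. After ca. 3 weeks, injury scored visually versus untreated controls: 0% = as control, 100% = plants dead.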

[2] = test system: Alopecurus myosuroides (ALOMY); test: Herbicidal post-emergence action (D), 320 g/ha; settings: ca. 3 weeks
In short: as §1

[3] = test system: Echinochloa crus-galli (ECHCG); test: Herbicidal post-emergence action (D), 320 g/ha; settings: ca. 3 weeks
In short: as §1

[4] = test system: Abutilon theophrasti (ABUTH); test: Herbicidal post-emergence action (D), 320 g/ha; settings: ca. 3 weeks
In short: as §1

Lolium rigidum (LOLRI) [5] = test: Herbicidal pre-emergence action (C), 320 g/ha; settings: ca. 3 weeks
In short: (§2)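 Seeds sown in sandy loam and covered with soil; compounds formulated as WP or EC were sprayed onto the covering soil as aqueous suspension/emulsion with 0.5% additive at 600 l water/ha. Pots kept in greenhouse; damage graded visually after ca. 3 weeks versus untreated controls (0% = as control, 100% = plants dead).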

[6] = test system: Amaranthus retroflexus (AMARE); test: Herbicidal pre-emergence action (C), 320 g/ha; settings: ca. 3 weeks
In short: as §2

[7] = test system: Alopecurus myosuroides (ALOMY); test: Herbicidal pre-emergence action (C), 320 g/ha; settings: ca. 3 weeks
In short: as §2

[8] = test system: Echinochloa crus-galli (ECHCG); test: Herbicidal pre-emergence action (C), 320 g/ha; settings: ca. 3 weeks
In short: as §2

Setaria viridis (SETVI) [9] = test: Herbicidal pre-emergence action (C), 320 g/ha; settings: ca. 3 weeks
In short: as §2

Lolium rigidum (LOLRI) [10] = test: Herbicidal pre-emergence action (A), 1280 g/ha; settings: visual grading after ca. 3 weeks vs untreated controls, 100% = plants have died off, 0% = as control plants
In short: (§3)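 Visual percent damage scored about 3 weeks after treatment relative to untreated pots (100% = complete kill, 0% = no effect). Compounds, as wettable powder or emulsifiable concentrate plus 0.5% additive in 600 l water/ha, were applied to the soil surface over freshly sown seeds in sandy loam, greenhouse-grown.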

[11] = test system: Amaranthus retroflexus (AMARE); test: Herbicidal pre-emergence action (A), 1280 g/ha; settings: visual grading after ca. 3 weeks vs untreated controls
In short: as §3

[12] = test system: Matricaria inodora (MATIN); test: Herbicidal pre-emergence action (A), 1280 g/ha; settings: visual grading after ca. 3 weeks vs untreated controls
In short: as §3

[13] = test system: Digitaria sanguinalis (DIGSA); test: Herbicidal pre-emergence action (A), 1280 g/ha; settings: visual grading after ca. 3 weeks vs untreated controls, 100% = plants have died off, 0% = as control plants
In short: as §3

[14] = test system: Alopecurus myosuroides (ALOMY); test: Herbicidal pre-emergence action (A), 1280 g/ha; settings: visual grading after ca. 3 weeks vs untreated controls, 100% = plants have died off, 0% = as control plants
In short: as §3

[15] = test system: Kochia scoparia (KCHSC; Bassia scoparia); test: Herbicidal pre-emergence action (A), 1280 g/ha; settings: visual grading after ca. 3 weeks vs untreated controls
In short: as §3

[16] = test system: Echinochloa crus-galli (ECHCG); test: Herbicidal pre-emergence action (A), 1280 g/ha; settings: visual grading after ca. 3 weeks vs untreated controls, 100% = plants have died off, 0% = as control plants
In short: as §3

Stellaria media (STEME) [17] = test: Herbicidal pre-emergence action (A), 1280 g/ha; settings: visual grading after ca. 3 weeks vs untreated controls
In short: as §3

Setaria viridis (SETVI) [18] = test: Herbicidal pre-emergence action (A), 1280 g/ha; settings: visual grading after ca. 3 weeks vs untreated controls
In short: as §3

Poa annua (POAAN) [19] = test: Herbicidal pre-emergence action (A), 1280 g/ha; settings: visual grading after ca. 3 weeks vs untreated controls, 100% = plants have died off, 0% = as control plants
In short: as §3

Veronica persica (VERPE) [20] = test: Herbicidal pre-emergence action (A), 1280 g/ha; settings: visual grading after ca. 3 weeks vs untreated controls
In short: as §3

[21] = test system: Digitaria sanguinalis (DIGSA); test: Herbicidal pre-emergence action (C), 320 g/ha; settings: ca. 3 weeks
Excerpt: (§4) Seeds of mono- and dicotyledonous weed plants and crop plants were sown, in plastic or organic planting pots, in sandy loam and covered with soil. The compounds according to the invention, formulated in the form of wettable powders (WP) or as emulsifiable concentrates (EC), were applied to the surface of the covering soil as aqueous suspension or emulsion, with the addition of 0.5% of an additive, at an application rate of 600 l of water/ha (converted).
(§5) Following treatment, the pots were placed in a greenhouse and kept under optimum growth conditions for the test plants. The visual grading of the damage to the test plants was carried out after ca. 3 weeks in comparison to untreated controls (herbicidal effect in percent (%): 100% effect=plants have died off, 0% effect=as control plants).
(§6) Tables C1 to C13 below show the effects of selected compounds of the general formula (I) according to table 1 on various harmful plants and an application rate corresponding to 320 g/ha obtained by the experimental procedure mentioned above.

[22] = test system: Amaranthus retroflexus (AMARE); test: Herbicidal post-emergence action (B), 1280 g/ha; settings: rated visually after about 3 weeks vs untreated controls
In short: (§7)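 Compounds formulated as wettable powder or emulsion concentrate, with 0.5% additive, sprayed at 600 l/ha onto one-leaf-stage plants grown in sandy loam for 2 to 3 weeks. Damage rated visually against untreated plants roughly 3 weeks later; 0% = like control, 100% = plants died.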

[23] = test system: Matricaria inodora (MATIN); test: Herbicidal post-emergence action (B), 1280 g/ha; settings: rated visually after about 3 weeks vs untreated controls
In short: as §7

[24] = test system: Digitaria sanguinalis (DIGSA); test: Herbicidal post-emergence action (B), 1280 g/ha; settings: rated visually after about 3 weeks vs untreated controls
In short: as §7

[25] = test system: Alopecurus myosuroides (ALOMY); test: Herbicidal post-emergence action (B), 1280 g/ha; settings: rated visually after about 3 weeks vs untreated controls
In short: as §7

[26] = test system: Kochia scoparia (KCHSC; Bassia scoparia); test: Herbicidal post-emergence action (B), 1280 g/ha
In short: as §7

[27] = test system: Echinochloa crus-galli (ECHCG); test: Herbicidal post-emergence action (B), 1280 g/ha; settings: rated visually after about 3 weeks vs untreated controls
In short: as §7

Stellaria media (STEME) [28] = test: Herbicidal post-emergence action (B), 1280 g/ha
In short: as §7

Setaria viridis (SETVI) [29] = test: Herbicidal post-emergence action (B), 1280 g/ha; settings: rated visually after about 3 weeks vs untreated controls
In short: as §7

Poa annua (POAAN) [30] = test: Herbicidal post-emergence action (B), 1280 g/ha; settings: rated visually after about 3 weeks vs untreated controls
In short: as §7

Veronica persica (VERPE) [31] = test: Herbicidal post-emergence action (B), 1280 g/ha
In short: as §7

[32] = test system: Abutilon theophrasti (ABUTH); test: Herbicidal post-emergence action (B), 1280 g/ha; settings: rated visually after about 3 weeks vs untreated controls
In short: as §7

[33] = test system: Polygonum convolvulus (POLCO); test: Herbicidal post-emergence action (D), 320 g/ha; settings: ca. 3 weeks
In short: as §1

Setaria viridis (SETVI) [34] = test: Herbicidal post-emergence action (D), 320 g/ha; settings: ca. 3 weeks
In short: as §1

[35] = test system: Polygonum convolvulus (POLCO); test: Herbicidal pre-emergence action (C), 320 g/ha; settings: ca. 3 weeks
In short: as §2

[36] = test system: Matricaria inodora (MATIN); test: Herbicidal pre-emergence action (C), 320 g/ha; settings: ca. 3 weeks
In short: as §2

Veronica persica (VERPE) [37] = test: Herbicidal pre-emergence action (C), 320 g/ha; settings: ca. 3 weeks
In short: as §2

[38] = test system: Abutilon theophrasti (ABUTH); test: Herbicidal pre-emergence action (C), 320 g/ha; settings: ca. 3 weeks
In short: as §2

Avena fatua = test: Herbicidal pre-emergence action (C), 320 g/ha; settings: ca. 3 weeks
Excerpt: as §4, §5, §6

c1ccc(-c2ccc3scnc3n2)cc1 [Example I-010]
herbicidal effect AMARE [1]: 80%
herbicidal effect ALOMY [2]: 90%
herbicidal effect ECHCG [3]: 90%
herbicidal effect ABUTH [4]: 80%
herbicidal effect LOLRI (Lolium rigidum (LOLRI) [5]): 100%
herbicidal effect AMARE [6]: 90%
herbicidal effect ALOMY [7]: 100%
herbicidal effect ECHCG [8]: 100%
herbicidal effect SETVI (Setaria viridis (SETVI) [9]): 100%
LOLRI, herbicidal effect in percent (%) (Lolium rigidum (LOLRI) [10]): 100%
herbicidal effect AMARE [11]: 90%
herbicidal effect MATIN [12]: 100%
DIGSA, herbicidal effect in percent (%) [13]: 100%
ALOMY, herbicidal effect in percent (%) [14]: 100%
herbicidal effect KCHSC [15]: 90%
ECHCG, herbicidal effect in percent (%) [16]: 100%
herbicidal effect STEME (Stellaria media (STEME) [17]): 100%
herbicidal effect SETVI (Setaria viridis (SETVI) [18]): 100%
POAAN, herbicidal effect in percent (%) (Poa annua (POAAN) [19]): 100%
herbicidal effect VERPE (Veronica persica (VERPE) [20]): 90%
herbicidal effect DIGSA [21]: 100%
herbicidal activity AMARE [22]: 100%
herbicidal activity MATIN [23]: 100%
herbicidal activity DIGSA [24]: 100%
herbicidal activity ALOMY [25]: 100%
herbicidal effect KCHSC [26]: 100%
herbicidal activity ECHCG [27]: 90%
herbicidal effect STEME (Stellaria media (STEME) [28]): 100%
herbicidal activity SETVI (Setaria viridis (SETVI) [29]): 100%
herbicidal activity POAAN (Poa annua (POAAN) [30]): 100%
herbicidal effect VERPE (Veronica persica (VERPE) [31]): 100%
herbicidal activity ABUTH [32]: 100%

Fc1ccccc1-c1nc2ncsc2cc1Br [Example I-012]
herbicidal effect AMARE [1]: 90%
herbicidal effect POLCO [33]: 90%
herbicidal effect ALOMY [2]: 90%
herbicidal effect ECHCG [3]: 80%
herbicidal effect SETVI (Setaria viridis (SETVI) [34]): 90%
herbicidal effect LOLRI (Lolium rigidum (LOLRI) [5]): 100%
herbicidal effect AMARE [6]: 90%
herbicidal effect POLCO [35]: 80%
herbicidal effect MATIN [36]: 90%
herbicidal effect ALOMY [7]: 100%
herbicidal effect ECHCG [8]: 100%
herbicidal effect SETVI (Setaria viridis (SETVI) [9]): 100%
herbicidal effect VERPE (Veronica persica (VERPE) [37]): 80%
herbicidal effect ABUTH [38]: 80%
herbicidal effect AVEFA (Avena fatua): 100%
